# Source: patent US20230190851A1, “PLANT COMPOUNDS FOR TREATING ALZHEIMER'S DISEASE” (RRW B.V., priority 2020, published 2023)
# Test system: C. elegans nematode strain with inducible amyloid-β accumulation (CL4176)
# Assay: Alzheimer's disease paralysis assay, C. elegans strain with inducible amyloid-β accumulation
# Type: in vivo
# Conditions: strain CL4176, heat shock 25° C., counted approximately every 24 h; combination effect after 71 h, persisted for 95 h
# From the text: These strains accumulate amyloid-β peptides that form plaques in the nematodes and lead to paralysis of the animals. In certain strains, such as strain CL4176, Aβ accumulation occurs only in response to heat shock. Thus, the Alzheimer's disease pattern is inducible in these strains. The number of paralyzed nematodes after a certain period of time following induction of Aβ accumulation indicates the extent of Alzheimer's disease. Thus, the effect of certain substances to which the nematodes are exposed on the number of paralyzed animals is a measure of the anti-Alzheimer effect of these substances.
# Nematodes of strain CL4176 were synchronized at the young larval stage and allowed to grow to the L4 stage on normal growth medium for 72 h at 16° C. Then the nematodes were exposed to the test substance and the temperature was increased to 25° C. This heat shock induced Aβ accumulation, simulating the onset of Alzheimer's disease. Approximately every 24 h, the number of animals that were still mobile and those that were paralyzed as a result of Aβ accumulation was determined.
smiles,measurement,value
"C=C(C)[C@@H]1CCC(C)=C[C@H]1c1c(O)cc(CCCCC)cc1O [CBD, cannabidiol]",number of mobile / paralyzed animals after induction of Aβ accumulation,only little effect
